According to EP0810221A1 (MITSUBISHI CHEMICAL CORPORATION, priority 1995, dated 1996):

Experiments:
blood platelets = conditions: cited from earlier work
[1] = test system: muscular dystrophy hamsters; conditions: cited from earlier work
axon = conditions: head injury model using a rat; cited from earlier work
[2] = test system: animal model of myocardial infarct; conditions: in vivo; cited from earlier work
[3] = Release of an active compound in blood: incubation in rat serum, HPLC; format: in vitro ADME; conditions: final concentration 100 µ M, 37°C, 5 minutes
Method: (2S,3S)-2-acetoxy-3-((S)-4-methyl-2-phenylsulfonylaminovalerylamino)tetrahydrofuran obtained in Example 88 was dissolved in acetonitrile and the solution was added to rat serum so that its final concentration was adjusted to 100 µ M. The mixture was incubated at 37°C for 5 minutes. The mixture was then added with acetonitrile and centrifuged, and the resulting solution portion was applied to HPLC for analysis. For comparison, solutions obtained by dissolving (3S)-3-((S)-4-methyl-2-phenylsulfonylaminovalerylamino)-2-tetrahydrofuranol obtained in Example 1 and (2S,3S)-2-acetoxy-3-((S)-4-methyl-2-phenylsulfonylaminovalerylamino)tetrahydrofuran obtained in Example 88 in acetonitrile respectively were examined by HPLC.
The HPLC conditions were as follows: Column: Nucleosil 1005 C18, 4.6×250 mm (Nagel) Column temperature: 50°C Mobile phase: CH3CN:H2O:PIC A Low UV (Waters) = 22:78:1 Flow rate: 1 ml/min Detection wavelength: UV 222 nm

[4] = Release of an active compound in blood: incubation in human serum, HPLC; format: in vitro ADME; conditions: same procedure
[5] = Release of an active compound in blood: incubation in dog serum, HPLC; format: in vitro ADME; conditions: same procedure
[6] = Acute toxicity test, oral; conditions: both sexes, rat, in vivo, orally administered, suspended in 0.5% aqueous CMC-Na, SD male and female rats, observed for seven days
Excerpt: Compounds of the present invention was suspended in 0.5% aqueous solution of CMC-Na and the suspensions were orally administered to SD male and female rats.

[7] = test system: microtubule-binding proteins; conditions: after cerebral ischemia; cited from earlier work

## CCOC(=O)[C@H]1O[C@@H]1C(=O)N[C@@H](CC(C)C)C(=O)NCCC(C)C [Example E-64-d, E-64-d]
Blood platelets
  platelet aggregation caused by thrombin: suppressed
[1]
  life prolongation effect: life prolongation effect

## CC(=O)N[C@@H](CC(C)C)C(=O)N[C@@H](CC(C)C)C(=O)N[C@H](C=O)CCCNC(=N)N [leupeptin]
axon
  protective effect on axon: protective effect on axon was observed

## CCOC(=O)[C@@H]1O[C@H]1C(=O)NC(CC(C)C)C(=O)N1CCN(Cc2ccc(OC)c(OC)c2OC)CC1.CCOC(=O)[C@@H]1O[C@H]1C(=O)NC(CC(C)C)C(=O)N1CCN(Cc2ccc(OC)c(OC)c2OC)CC1.O=S(=O)(O)O (stereo partly drawn) [NCO-700]
[2]
  efficacy in an animal model of myocardial infarct: effective

## CC(=O)O[C@@H]1OCC[C@@H]1NC(=O)[C@H](CC(C)C)NS(=O)(=O)c1ccccc1 [Example 88, (2S,3S)-2-acetoxy-3-((S)-4-methyl-2-phenylsulfonylaminovalerylamino)tetrahydrofuran]
[3]
  hydrolyzed and converted into the active form: 97%
[4]
  formation of active form: formations of active form were also observed
[5]
  formation of active form: formations of active form were also observed
[6]
  LD50 at 7 days: < 2000 mg/kg

## CC(C)CCNC(=O)[C@H](CC(C)C)NC(=O)[C@H]1O[C@@H]1C(=O)O [Example E-64-c, E-64-c]
[7]
  degradation of microtubule-binding proteins: suppressed
